Results published in patent publication US12220415B2, “WEE1 kinase inhibitors and methods of treating cancer using the same” (The Regents of the University of Colorado, A Body Corporate, priority 2018, dated 2025).
Read-outs that look alike come from different tables or passages of the source. One block for each molecule: values may come before it.

What was measured:
recombinant WEE1 kinase = recombinant WEE1 kinase (Homo sapiens (Human), UniProt P30291); test: LanthaScreen Eu TR-FRET kinase binding assay for WEE1 kinase inhibitory activity; details: Kinase Tracer 178, 1 hour at room temperature
Sequence of recombinant WEE1 kinase (P30291 whole entry): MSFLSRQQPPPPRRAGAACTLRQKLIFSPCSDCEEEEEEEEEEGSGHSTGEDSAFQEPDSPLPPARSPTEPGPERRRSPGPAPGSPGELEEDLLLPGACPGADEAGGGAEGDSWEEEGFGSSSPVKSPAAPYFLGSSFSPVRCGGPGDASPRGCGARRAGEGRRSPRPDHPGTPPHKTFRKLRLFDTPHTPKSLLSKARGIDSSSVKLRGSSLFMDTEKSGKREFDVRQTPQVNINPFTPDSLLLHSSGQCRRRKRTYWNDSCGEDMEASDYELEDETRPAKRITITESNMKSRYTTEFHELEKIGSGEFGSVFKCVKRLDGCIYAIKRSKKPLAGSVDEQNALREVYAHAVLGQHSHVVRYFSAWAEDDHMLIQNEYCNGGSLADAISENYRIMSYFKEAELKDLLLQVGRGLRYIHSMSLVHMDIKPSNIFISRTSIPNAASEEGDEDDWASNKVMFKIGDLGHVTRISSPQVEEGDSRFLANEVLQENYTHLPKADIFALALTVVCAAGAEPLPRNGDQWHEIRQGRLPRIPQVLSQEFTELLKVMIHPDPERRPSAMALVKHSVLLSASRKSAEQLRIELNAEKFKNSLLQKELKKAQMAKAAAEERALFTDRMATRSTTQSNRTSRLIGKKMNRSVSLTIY
Protocol: A LanthaScreen™ kinase activity assay was conducted to assess WEE1 kinase inhibitory activity for compounds of this disclosure. […] All reagents were prepared as solutions in 1× kinase buffer A (Invitrogen) at 3× final desired concentration. […] Inhibitors were assayed in the final concentration range of 0.04 nM to 10 μM.

ONS-76 cells = test: MTS cell viability assay in ONS-76 cells; assay type: cell-based; details: Homo sapiens; for inhibition at 1.16 µM: @ 1160 nM, read-out: percent cell inhibition, ONS-76; for EC50: read-out: EC50 cellular metabolic viability, ONS-76; for IC50: read-out: Mean IC50, ONS-76
Protocol: (§1) FIG. 1A is a dose-response study for ONS-76 cells treated with a concentration range of WEE1 inhibitors for 72 hours in an MTS assay. […] FIG. 1B is a dose-response study for Daoy cells treated with a concentration range of WEE1 inhibitors for 72 hours in an MTS assay.
(§2) To evaluate the effect of the WEE1 kinase inhibitors, Daoy cells and ONS-76 cells (human primary medulloblastoma cell lines) were treated with test compounds and cell growth was by MTS assay (FIGS. 1A and 1B). […] Cells were incubated for 72 hr with 50 μL of each diluted drug solution. Cell viability was measured by 2 hr incubation with 30 μL CellTiter 96® AQueous One Cell Proliferation reagent (Promega) and formazan concentration assessed through colorimetric analysis using a BioTek Synergy H1 plate reader (Absorption=490 nm).

[1] = test system: murine AML-expressing MLL-ENL, FLT3-ITD, and luciferase; test: Murine AML model, disease progression by luciferase expression; assay type: in vivo; details: mice with AML, cytarabine alone
Protocol: In a second toxicity study, mice without leukemia were treated with cytarabine and/or a WEE1 inhibitor for 5 of 7 days for 3 consecutive weeks. […] The inventors then used an aggressive model of murine AML-expressing MLL-ENL, FLT3-ITD, and luciferase, to determine whether WEE1 inhibition would enhance the anti-leukemia effects of cytarabine.

[2] = test system: pCDK1 (Tyr15) in Daoy cell lysates; test: pCDK1 (Tyr15) ELISA in Daoy cell lysates; assay type: cell-based, human; details: 24 hours, single 220 nM dose
Protocol: WEE1 inactivates CDC2 through selective phosphorylation of the Tyr15 residue of cyclin-dependent kinase 1 (CDK1) stabilizing the CDC2-cyclin B complex. Therefore, inhibition of WEE1 kinase activity will prevent the phosphorylation of its substrate CDK1 at Tyr15. […] Following drug incubation, the media was aspirated from cells before cells were trypsinized and resuspended in TES/SB buffer containing protease inhibitors. Cells were lysed on ice through sonication, and cell lysates were diluted with ELISA Pathscan® sample diluent to a final volume of 100 μL and protein concentration of 0.05 mg/ml prior to use. The relative concentration of p-CDK1 Tyr15 was determined using an enzyme-linked immunosorbent assay according to recommended protocol (Cell Signaling, ELISA Pathscan® phosphor-Cdc2 (Tyr15)).

Daoy cells = test: MTS cell viability assay in Daoy cells; assay type: cell-based, human; details: for activity at 0.6 µM: at 600 nM; for inhibition at 0.6 µM: 72 hr, @ 600 nM, read-out: percent cell inhibition, DAOY; for EC50: read-out: EC50 cellular metabolic viability, Daoy
Protocol: as §1, §2

medulloblastoma cells = details: Mol Cancer. 2014, 13:72, cited from earlier work
[3] = ONS-76 cells, 72 hours, MTS assay, n=3, ±=S.D.
[4] = Homo sapiens, Daoy cells, 72 hours, MTS assay
[5] = Homo sapiens, Daoy cells, MTS assay

- IC50 (recombinant WEE1 kinase): 0.0104 µM
Compound: C=CCn1c(=O)c2cnc(Nc3ccc(N4CCN(C)CC4)cc3)nc2n1-c1cccc(CO)c1

Compound: C=CCn1c(=O)c2cnc(Nc3cccc(C(=O)N(C)C)c3)nc2n1-c1cccc(C(C)(C)O)n1
- IC50 (recombinant WEE1 kinase): 0.0273 µM

- IC50 (recombinant WEE1 kinase): 0.0136 µM
Compound: C=CCn1c(=O)c2cnc(NCc3ccc(CC)cc3)nc2n1-c1cccc(C(C)(C)O)n1

Compound: C=CCn1c(=O)c2cnc(Nc3ccccc3)nc2n1-c1cccc(C(C)(C)O)n1 [drawing 14]
- IC50 (recombinant WEE1 kinase): 0.0096 µM

- IC50 (recombinant WEE1 kinase): 0.179 µM
Compound: C=C(C)c1cccc(-n2c3nc(Nc4ccc(N5CCN(C)CC5)cc4)ncc3c(=O)n2C)n1

Compound: C=CCn1c(=O)c2cnc(Nc3cccc(CN(C)C)c3)nc2n1-c1cccc(C(C)(C)O)n1 [KAC-014, 2-allyl-6-((3-((dimethylamino)methyl)phenyl)amino)-1-(6-(2-hydroxypropan-2-yl)pyridin-2-yl)-1,2-dihydro-3H-pyrazolo[3,4-d]pyrimidin-3-one]
- inhibition at 1.16 µM (ONS-76 cells; ONS-76 cells, 72 hr, MTS assay): 40%

Compound: C=CCn1c(=O)c2cnc(Nc3cccc(CN(C)C)c3)nc2n1-c1cccc(C(C)(C)O)n1 [drawing 18]
- IC50 (recombinant WEE1 kinase): 0.0091 µM

Compound: C=CCn1c(=O)c2cnc(Nc3ccc(OCCN(C)C)cc3)nc2n1-c1cccc(C(C)(C)O)n1 [drawing 21]
- IC50 (recombinant WEE1 kinase): 0.0078 µM

Compound: C=CCn1c(=O)c2cnc(Nc3ccc(N4CCN(C)CC4)cc3)nc2n1-c1cccc(CO)n1 [CM-170, 2-allyl-1-(6-(hydroxymethyl)pyridin-2-yl)-6-((4-(4-methylpiperazin-1-yl)phenyl)amino)-1,2-dihydro-3H-pyrazolo[3,4-d]pyrimidin-3-one]
- inhibition at 1.16 µM (ONS-76 cells; ONS-76 cells, 72 hr, MTS assay): 59%

Compound: Nc1ccn([C@@H]2O[C@H](CO)[C@@H](O)[C@@H]2O)c(=O)n1 [cytarabine]
- leukemia progression, measured by luciferase expression over time [1]: slowed the progression of the leukemia

Compound: C=CCn1c(=O)c2cnc(N)nc2n1-c1cccc(C(C)(C)O)n1
- IC50 (recombinant WEE1 kinase): 0.0177 µM

- IC50 (recombinant WEE1 kinase): 0.0897 µM
Compound: COc1ccc(Cn2c(=O)c3cnc(Nc4ccc(N5CCN(C)CC5)cc4)nc3n2-c2cccc(C(C)(C)O)n2)cc1

Compound: C=CCn1c(=O)c2cnc(Nc3cccc(N(C)C)c3)nc2n1-c1cccc(C(C)(C)O)n1 [KAC-019, 2-allyl-6-((3-(dimethylamino)phenyl)amino)-1-(6-(2-hydroxypropan-2-yl)pyridin-2-yl)-1,2-dihydro-3H-pyrazolo[3,4-d]pyrimidin-3-one]
- inhibition at 1.16 µM (ONS-76 cells; ONS-76 cells, 72 hr, MTS assay): 33%

- IC50 (recombinant WEE1 kinase): 0.0781 µM
Compound: C=CCn1c(=O)c2cnc(Nc3cccc(C#N)c3)nc2n1-c1cccc(C(C)(C)O)n1

Compound: C=CCn1c(=O)c2cnc(Nc3ccccc3)nc2n1-c1cccc(C(C)(C)O)n1 [KAC-017, 2-allyl-1-(6-(2-hydroxypropan-2-yl)pyridin-2-yl)-6-(phenylamino)-1,2-dihydro-3H-pyrazolo[3,4-d]pyrimidin-3-one]
- inhibition at 1.16 µM (ONS-76 cells; ONS-76 cells, 72 hr, MTS assay): 32%

Compound: C=CCn1c(=O)c2cnc(Nc3ccc(OCCN(C)C)cc3)nc2n1-c1cccc(C(C)(C)O)n1 [CM-181, 2-allyl-6-((4-(2-(dimethylamino)ethoxy)phenyl)amino)-1-(6-(2-hydroxypropan-2-yl)pyridin-2-yl)-1,2-dihydro-3H-pyrazolo[3,4-d]pyrimidin-3-one]
- pCDK1(Tyr15) level compared to DMSO control [2]: decrease
- EC50 (ONS-76 cells; [3]): 0.203 ± 0.04 µM
- IC50 (ONS-76 cells; ONS-76 cells, 72 hr, MTS assay): 0.273 µM
- activity at 0.6 µM (Daoy cells; [4]): 81%
- inhibition at 0.6 µM (Daoy cells; [5]): 82%

- IC50 (recombinant WEE1 kinase): 0.0018 µM
Compound: C=CCn1c(=O)c2cnc(Nc3ccc(CCN(C)C)cc3)nc2n1-c1cccc(C(C)(C)O)n1 [drawing 20]

Compound: C=CCn1c(=O)c2cnc(Nc3ccc(N4CCN(C)CC4)cc3)nc2n1-c1cccc(C(C)(C)O)n1 [AZD1775, 2-allyl-1-(6-(2-hydroxypropan-2-yl)pyridin-2-yl)-6-((4-(4-methylpiperazin-1-yl)phenyl)amino)-1,2-dihydro-3H-pyrazolo[3,4-d]pyrimidin-3-one, reference compound]
- pCDK1(Tyr15) level compared to DMSO control [2]: decrease
- EC50 (ONS-76 cells; ONS-76, 72 h): 0.29 µM
- IC50 (ONS-76 cells; ONS-76, 72 h): 0.221 µM
- EC50 (Daoy cells; Homo sapiens, Daoy, 72 h): 0.15 µM
- IC50 (Daoy cells; Homo sapiens, Daoy, 72 h, read-out: Mean IC50, DAOY): 0.378 µM
- EC50 (Daoy cells; Daoy cells, 72 hours, MTS assay, n=3, ±=S.D.): 0.179 ± 0.016 µM
- activity in combination with cisplatin (medulloblastoma cells; medulloblastoma cells): synergistic activity
- single agent effect in medulloblastoma (medulloblastoma cells; single agent): suppressed cell growth, induced apoptosis, and decreased tumor growth

Compound: C=CCn1c(=O)c2cnc(Nc3ccc(N4CCN(C)CC4)cc3)nc2n1-c1cccc(C(C)(C)O)c1 [CM-169, 2-allyl-1-(3-(2-hydroxypropan-2-yl)phenyl)-6-((4-(4-methylpiperazin-1-yl)phenyl)amino)-1,2-dihydro-3H-pyrazolo[3,4-d]pyrimidin-3-one]
- pCDK1(Tyr15) level compared to DMSO control [2]: statistically the same as that for AZD1775
- inhibition at 1.16 µM (ONS-76 cells; ONS-76 cells, 72 hr, MTS assay): 61%

Compound: C=CCn1c(=O)c2cnc(Nc3ccc(CCN(C)C)cc3)nc2n1-c1cccc(C(C)(C)O)n1 [KAC-034, 2-allyl-6-((4-(2-(dimethylamino)ethyl)phenyl)amino)-1-(6-(2-hydroxypropan-2-yl)pyridin-2-yl)-1,2-dihydro-3H-pyrazolo[3,4-d]pyrimidin-3-one]
- pCDK1(Tyr15) level compared to DMSO control [2]: decrease
- EC50 (ONS-76 cells; [3]): 0.252 ± 0.009 µM
- IC50 (ONS-76 cells; ONS-76 cells, 72 hr, MTS assay): 0.495 µM
- activity at 0.6 µM (Daoy cells; [4]): 84%
- inhibition at 0.6 µM (Daoy cells; [5]): 83%
